The test system of one data set is Staphylococcus aureus. Kind of data set: Antibacterial activity against Staphylococcus aureus isolate 38 measured after 18 to 24 hrs by broth microdilution method. The data set is classed as functional. The following applies: time 18-24 hrs.
Data set [1] deals with Pseudomonas aeruginosa. Kind of data set: Antibacterial activity against Pseudomonas aeruginosa PAO1 measured after 18 to 24 hrs by broth microdilution method. In kind it is functional. Particulars: time 18-24 hrs.
Another data set has as its system Escherichia coli. Kind of data set: Antibacterial activity against Escherichia coli K12 measured after 18 to 24 hrs by broth microdilution method. In kind it is functional. The following applies: time 18-24 hrs.
In data set [2] the target is T1, Transcriptional activator protein LasR (Pseudomonas aeruginosa (strain ATCC 15692 / PAO1 / 1C / PRS 101 / LMG12228)) (UniProt P25084).
T1 sequence (whole entry): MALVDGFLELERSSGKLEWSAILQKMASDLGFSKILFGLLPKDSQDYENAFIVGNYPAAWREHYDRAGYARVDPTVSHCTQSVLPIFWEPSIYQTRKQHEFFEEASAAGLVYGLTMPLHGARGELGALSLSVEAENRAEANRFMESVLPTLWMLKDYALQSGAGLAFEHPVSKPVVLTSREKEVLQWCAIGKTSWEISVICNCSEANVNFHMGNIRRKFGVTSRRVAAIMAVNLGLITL
Kind of data set: Inhibition of LasR quorum sensing system in Pseudomonas aeruginosa MH602 expressing PlasB::gfp assessed as reduction in GFP expression at 16 uM incubated for 15 hrs by fluorescence microplate reader analysis relative to control.

Data set [3] relates to Pseudomonas aeruginosa. Kind of data set: Growth inhibition of Pseudomonas aeruginosa MH602 expressing PlasB::gfp at 16 uM relative to control. The data set is classed as functional. Particulars: read-out: GI.
Data set [4] is described as follows: Inhibition of quorum sensing system in Pseudomonas aeruginosa PAO1 assessed as reduction in pyocyanin production at 64 uM measured after 48 hrs relative to control.
Data set [5] is described as follows: Hemolytic activity in horse RBC measured after 4 hrs. Particulars: horse red blood cells. The data set is classed as toxicity, cell-based, Equus caballus, Erythrocyte.
Data set [6] is described as follows: Hemolytic activity in horse RBC assessed as hemolysis at 500 uM measured after 4 hrs relative to control. In kind it is toxicity, cell-based, Equus caballus, Erythrocyte. Particulars: horse red blood cells, read-out: Activity.

Converted amounts (≈) assume the structure as drawn. The source made the active and inactive calls. The rule behind the calls is not given here. Some results are limits rather than exact numbers.

Regarding `C=C1C(c2ccccc2)=CC(=O)N1CCC[Se]C(=N)N`, the MIC90 against Staphylococcus aureus is 250 µM (≈ 83.6 µg/mL); in the data set with Pseudomonas aeruginosa [1], greater than 250 µM; against Escherichia coli it was greater than 250 µM. Besides, the inhibition in data set [2] was found to be 51.5%.

Turning to `C=C1C(c2ccccc2)=CC(=O)N1CCSC(=N)N`, the MIC90 with Staphylococcus aureus, in the data set with Pseudomonas aeruginosa [1] and in the data set with Escherichia coli was greater than 250 µM each time. Also, the inhibition in data set [2] is 9.5%; in data set [4], greater than 60%. In the data set with Pseudomonas aeruginosa [3], the inhibition of growth at 16 µM is greater than 20%.

As for `C=C1C(c2ccc(Cl)cc2)=CC(=O)N1CCSC(=N)N`, the MIC90 is 125 µM (≈ 38.5 µg/mL) against Staphylococcus aureus, greater than 250 µM in the data set with Pseudomonas aeruginosa [1] and greater than 250 µM against Escherichia coli. The inhibition in data set [2] is 40.8%.

Regarding `O=C1C=C(Br)/C(=C/Br)O1`, in data set [2], the inhibition was determined as 62.5%.

Turning to `C=C1C(c2ccc(Cl)cc2)=CC(=O)N1CC[Se]C(=N)N`, the MIC90 in the data set with Staphylococcus aureus is 64 µM (≈ 22.7 µg/mL); against Pseudomonas aeruginosa [1], greater than 250 µM; in the data set on Escherichia coli, 125 µM (≈ 44.3 µg/mL). For the same compound, the inhibition in data set [2] worked out at 72.8%. Further, the inhibition of growth at 16 µM in the data set with Pseudomonas aeruginosa [3] was 15%. This compound also yielded an HC50 at 4 h in data set [5] greater than 500 µM.

In the case of `C=C1C(c2ccc(Br)cc2)=CC(=O)N1CCSC(=N)N`, the values for the MIC90 against Staphylococcus aureus, with Pseudomonas aeruginosa [1] and in the data set with Escherichia coli were 16 µM (≈ 5.64 µg/mL), 125 µM (≈ 44 µg/mL) and 32 µM (≈ 11.3 µg/mL), respectively. The inhibition in data set [2] was found to be 57.1%. Besides, the hemolysis at 4 h, 500 µM in data set [6] came out at 22%. For the same compound, the HC50 at 4 h in data set [5] is greater than 500 µM.

In the case of `C=C1C(c2ccc(F)cc2)=CC(=O)N1CC[n+]1ccn(C)c1`, the MIC90 against Staphylococcus aureus, in the data set with Pseudomonas aeruginosa [1] and with Escherichia coli was greater than 250 µM each time. The inhibition in data set [2] came out at 31.4%. In addition, the inhibition result in data set [4] is “inactive”.

On to `C=C1C(c2ccccc2)=CC(=O)N1CC[n+]1ccn(C)c1`, for which the MIC90 is 250 µM in the data set with Staphylococcus aureus, greater than 250 µM against Pseudomonas aeruginosa [1] and 250 µM with Escherichia coli. Also, the inhibition in data set [2] came to 14.4%. In data set [4], the inhibition result is “inactive”.

For the compound `C=C1C(c2ccc(Br)cc2)=CC(=O)N1CC[n+]1ccn(C)c1`, the figures for the MIC90 against Staphylococcus aureus, against Pseudomonas aeruginosa [1] and in the data set with Escherichia coli were 64 µM, greater than 250 µM and 250 µM, respectively. Further, in data set [2], the inhibition worked out at 0%. For the same compound, the inhibition result in data set [4] was “inactive”.

For the compound `C=C1C(c2ccc(Br)cc2)=CC(=O)N1CCCSC(=N)N`, the MIC90 in the data set on Staphylococcus aureus was determined as 64 µM (≈ 23.4 µg/mL); against Pseudomonas aeruginosa [1], 250 µM (≈ 91.6 µg/mL); in the data set on Escherichia coli, 64 µM (≈ 23.4 µg/mL). Further, in data set [2], the inhibition came to 48.3%. In the data set with Pseudomonas aeruginosa [3], the inhibition of growth at 16 µM is less than 20%.

On to `C=C1C(c2ccc(Br)cc2)=CC(=O)N1CCC[n+]1ccn(C)c1`, for which the MIC90 is 32 µM against Staphylococcus aureus, greater than 250 µM with Pseudomonas aeruginosa [1] and 125 µM against Escherichia coli. For the same compound, the inhibition in data set [2] is 0%. In addition, in data set [4], the inhibition entry was “inactive”. The HC50 at 4 h in data set [5] was greater than 31 µM.

In the case of `C=C1C(c2ccc(Cl)cc2)=CC(=O)N1CCC[n+]1ccn(C)c1`, the MIC90 is 250 µM in the data set with Staphylococcus aureus, greater than 250 µM in the data set on Pseudomonas aeruginosa [1] and greater than 250 µM in the data set on Escherichia coli. Further, the inhibition in data set [2] was determined as 17.3%. The inhibition result in data set [4] is “inactive”.

For `C=C1C(c2ccc(Cl)cc2)=CC(=O)N1CCC[Se]C(=N)N`, the MIC90 was 64 µM (≈ 23.6 µg/mL) with Staphylococcus aureus, greater than 250 µM against Pseudomonas aeruginosa [1] and 125 µM (≈ 46.1 µg/mL) against Escherichia coli. Besides, the inhibition in data set [2] is 56.2%. This compound also yielded an HC50 at 4 h in data set [5] greater than 500 µM.

`C=C1C(c2ccccc2)=CC(=O)N1CCCSC(=N)N`: the MIC90 in the data set with Staphylococcus aureus was 125 µM (≈ 35.9 µg/mL); against Pseudomonas aeruginosa [1], greater than 250 µM; in the data set with Escherichia coli, greater than 250 µM. The inhibition in data set [2] came out at 0%. Moreover, the inhibition of growth at 16 µM in the data set on Pseudomonas aeruginosa [3] was greater than 20%.

Consider `C=C1C(c2ccc(Cl)cc2)=CC(=O)N1CCCSC(=N)N`, for which the MIC90 in the data set with Staphylococcus aureus came to 64 µM (≈ 20.6 µg/mL); in the data set on Pseudomonas aeruginosa [1], 250 µM (≈ 80.5 µg/mL); against Escherichia coli, 64 µM (≈ 20.6 µg/mL). Moreover, the values for the inhibition in data set [2] and in data set [4] were 53.1% and 70%, respectively.

With `C=C1C(c2ccc(F)cc2)=CC(=O)N1CCC[Se]C(=N)N`, the MIC90 in the data set with Staphylococcus aureus is 250 µM (≈ 88.1 µg/mL); in the data set on Pseudomonas aeruginosa [1], greater than 250 µM; in the data set with Escherichia coli, 250 µM (≈ 88.1 µg/mL). For the same compound, in data set [2], the inhibition amounted to 41.9%.

Regarding `C=C1C(c2ccc(F)cc2)=CC(=O)N1CCCSC(=N)N`, the results for the MIC90 against Staphylococcus aureus, in the data set on Pseudomonas aeruginosa [1] and in the data set on Escherichia coli were 64 µM (≈ 19.5 µg/mL), 250 µM (≈ 76.3 µg/mL) and 125 µM (≈ 38.2 µg/mL), respectively. Also, the inhibition in data set [2] came to 59.9%. The compound also showed an HC50 at 4 h in data set [5] greater than 500 µM.

Turning to `C=C1C(c2ccc(Br)cc2)=CC(=O)N1CCC[Se]C(=N)N`, the results for the MIC90 against Staphylococcus aureus, against Pseudomonas aeruginosa [1] and in the data set on Escherichia coli were 32 µM (≈ 13.2 µg/mL), 250 µM (≈ 103 µg/mL) and 64 µM (≈ 26.4 µg/mL), respectively. For the same compound, in data set [2], the inhibition amounted to 53.2%. In addition, the concentration for 50% haemolysis (HC50) at 4 h in data set [5] is greater than 250 µM.

Consider `C=C1C(c2ccc(F)cc2)=CC(=O)N1CCSC(=N)N`, for which the MIC90 against Staphylococcus aureus is 250 µM (≈ 72.8 µg/mL); against Pseudomonas aeruginosa [1], greater than 250 µM; in the data set on Escherichia coli, 250 µM (≈ 72.8 µg/mL). In addition, the inhibition in data set [2] amounted to 73.4%; in data set [4], 70%. In addition, in the data set on Pseudomonas aeruginosa [3], the inhibition of growth at 16 µM amounted to 16%.

As to `C=C1C(c2ccccc2)=CC(=O)N1CC[Se]C(=N)N`, the MIC90 in the data set on Staphylococcus aureus, in the data set with Pseudomonas aeruginosa [1] and against Escherichia coli was greater than 250 µM each time. Moreover, the inhibition in data set [2] was found to be 30.5%.

For `C=C1C(c2ccccc2)=CC(=O)N1CCC[n+]1ccn(C)c1`, the MIC90 against Staphylococcus aureus, against Pseudomonas aeruginosa [1] and against Escherichia coli was greater than 250 µM each time. For the same compound, the inhibition in data set [2] stood at 17.6%. Also, the inhibition entry in data set [4] was “inactive”.

As for `C=C1C(c2ccc(Cl)cc2)=CC(=O)N1CC[n+]1ccn(C)c1`, the MIC90 with Staphylococcus aureus is 250 µM; in the data set on Pseudomonas aeruginosa [1] it was greater than 250 µM; in the data set on Escherichia coli, greater than 250 µM. In addition, the inhibition in data set [2] turned out to be 23.4%. Also, the inhibition entry in data set [4] was “inactive”.

In the case of `C=C1C(c2ccc(F)cc2)=CC(=O)N1CCC[n+]1ccn(C)c1`, the MIC90 against Staphylococcus aureus, in the data set with Pseudomonas aeruginosa [1] and in the data set with Escherichia coli was greater than 250 µM throughout. In addition, in data set [2], the inhibition worked out at 14.6%. Besides, the inhibition entry in data set [4] is “inactive”.

Turning to `C=C1C(c2ccc(F)cc2)=CC(=O)N1CC[Se]C(=N)N`, the MIC90 against Staphylococcus aureus was 64 µM (≈ 21.6 µg/mL); in the data set on Pseudomonas aeruginosa [1], greater than 250 µM; in the data set with Escherichia coli it was 250 µM (≈ 84.6 µg/mL). Moreover, the inhibition in data set [2] came out at 64.5%.

`C=C1C(c2ccc(Br)cc2)=CC(=O)N1CC[Se]C(=N)N`: the MIC90 against Staphylococcus aureus is 64 µM (≈ 25.5 µg/mL); against Pseudomonas aeruginosa [1] it was greater than 250 µM; against Escherichia coli it was 125 µM (≈ 49.9 µg/mL). Further, the inhibition amounted to 69.4% in data set [2] and 70% in data set [4].
